What all share (assay type): cell-based
The subject of data set [1] is Trichophyton mentagrophytes. In words: MIC in serial dilution test, Trichophyton mentagrophytes. As to conditions: 336 h, pH 6, Trichophyton mentagrophytes, pH 6.0, 22° C., 14 days, read-out: MIC values, Tri. me. Here is the method: (§1) The antimycotic activities of the compounds were measured by in vitro determination of the minimum inhibitory concentration (MIC) for yeasts, molds and dermatophytes.
(§2) 6 dermatophytes, 2 yeasts and 4 molds were used for testing with fungi, as follows:
Trichophyton mentagrophytes
(§3) The minimum inhibitory concentration (MIC) was determined in serial dilution tests in test tubes. The volume of the liquid nutrient medium in each test tube was 4.5 ml.
(§4) The substances were dissolved in DMSO and diluted with sterile distilled water to 10 concentrations (100, 50, 25, 12.5, 6.25, 3.12, 1.56, 0.78, 0.39 and 0.19 μg/ml). 0.5 ml of each of these dilution steps was added to the liquid nutrient medium. Thus, a constant concentration of solvent in all the nutrient media was ensured, irrespective of the active compound concentration.
(§5) A comparison solution which contained only the solvent in appropriate concentration was included when carrying out each of the tests.
(§6) The individual strains were maintained on Sabouraud/beerwort agar slants and, before they were used in a test, they underwent a passage on a modified Sabouraud liquid nutrient medium. The strains were then harvested, washed and converted into a suspension of McFaerland 3 in the case of yeasts and molds and of McFaerland 4-5 in the case of dermatophytes.
(§7) The amount of material inoculated (inoculum) was 100 μl/test tube (inoculated densities: yeasts […] of the liquid nutrient medium was 6.0. After inoculation had taken place the fungi were incubated at 22° C. for 14 days.
(§8) The MIC was then determined. The concentration step at which growth was no longer visible on macroscopic inspection was used for the determination of the MIC. The comparison substance used was 1-(2-(2,4-dichlorophenyl)-2-(2,4-dichlorophenylmethoxy)ethyl)-1H-imidazoleas nitrate (compound A).

For a further data set, the system named is Mucor mucedo plus. Description: MIC in serial dilution test, Mucor mucedo plus. The note with it: 336 h, pH 6, Mucor mucedo plus, pH 6.0, 22° C., 14 days, read-out: MIC values, Mu. mu+. The method, then:
as §1, §2
Mucor mucedo plus (Mu.mu^+)
as §3, §4, §5, §6, §7, §8

A further data set has as its system Candida albicans. Description: MIC in serial dilution test, Candida albicans. The note with it: 336 h, pH 6.0, 22° C., 14 days, read-out: MIC values, C. alb. The method, then:
as §1, §2
Candida albicans (C.alb.)
as §3, §4, §5, §6, §7, §8

A further data set has as its system Microsporum canis. Description: MIC in serial dilution test, Microsporum canis. The note with it: 336 h, pH 6, Microsporum canis, pH 6.0, 22° C., 14 days, read-out: MIC values, Mi. can. The method, then: as §1, §2
Microsporum canis (Mi.can.)
as §3, §4, §5, §6, §7, §8

The test system of the next data set is Candida tropicalis. Description: MIC in serial dilution test, Candida tropicalis. As to conditions: 336 h, pH 6, Candida tropicalis, pH 6.0, 22° C., 14 days, read-out: MIC values, C. trop. Here is the method:
as §1, §2
Candida tropicalis (C.trop.)
as §3, §4, §5, §6, §7, §8

A further data set relates to Aspergillus fumigatus. Description: MIC in serial dilution test, Aspergillus fumigatus. The note with it: 20160 min, pH 6. The method, then: as §1, §2
Aspergillus fumigatus (Asp.fu.)
as §3, §4, §5, §6, §7, §8

The next data set deals with Absidia ramosa. Description: MIC in serial dilution test, Absidia ramosa. The note with it: Lichtheimia ramosa, 336 h, pH 6, Absidia ramosa; pH 6.0, 22° C., 14 days; read-out: MIC values, Abs. ra. The method, then:
as §1, §2
Absidia ramosa (Abs.ra.)
as §3, §4, §5, §6, §7, §8

Another data set relates to Epidermophyton floccosum. In words: MIC in serial dilution test, Epidermophyton floccosum. As to conditions: 336 h, pH 6, Epidermophyton floccosum, pH 6.0, 22° C., 14 days, read-out: MIC values, Ep. flo. The method, then:
as §1, §2
Epidermophyton floccosum
as §3, §4, §5, §6, §7, §8

A further data set relates to Trichophyton verrucosum. Description: MIC in serial dilution test, Trichophyton verrucosum. As to conditions: 336 h, pH 6, Trichophyton verrucosum, pH 6.0, 22° C., 14 days, read-out: MIC values, Tri. ve. Here is the method:
as §1, §2
Trichophyton verrucosum (Tri.ve.)
as §3, §4, §5, §6, §7, §8

In the next data set the test system is Microsporum gypseum. Description: MIC in serial dilution test, Microsporum gypseum. The note with it: Nannizzia gypsea, 336 h; Microsporum gypseum; pH 6.0, 22° C., 14 days; read-out: MIC values, Mi. gyp. The method, then: as §1, §2
Microsporum gypseum (Mi.gyp.)
as §3, §4, §5, §6, §7, §8

The next data set has as its system Trichophyton rubrum. Description: MIC in serial dilution test, Trichophyton rubrum. The note with it: 336 h, pH 6, Trichophyton rubrum, pH 6.0, 22° C., 14 days, read-out: MIC values, Tri. ru. Here is the method:
as §1, §2
Trichophyton rubrum (Tri.ru.)
as §3, §4, §5, §6, §7, §8

The test system of a further data set is Mucor mucedo minus. Description: MIC in serial dilution test, Mucor mucedo minus. The note with it: 336 h, pH 6, Mucor mucedo minus, pH 6.0, 22° C., 14 days, read-out: MIC values, Mu. mu-. The method, then:
as §1, §2
Mucor mucedo minus (Mu.mu^-)
as §3, §4, §5, §6, §7, §8

Ten molecules from patent US4925855A, “Imidazole derivatives and antimycotics containing them” (CL Pharma Aktiengesellschaft, priority 1986, dated 1990) can be followed below.

Converted amounts (≈) assume the structure as drawn.

One may read the MIC as the lowest concentration found to suppress growth.

Consider `Clc1ccc(SCCNC(Cn2ccnc2)c2ccc(-c3ccccc3)cc2)cc1` (centres unmarked) [compound 14], for which the minimum inhibitory concentration (MIC) in data set [1] is 0.78 µg/mL (≈ 1.8 µM); in the data set with Mucor mucedo plus it was 6.25 µg/mL; with Candida albicans it was 12.5 µg/mL (≈ 28.8 µM); in the data set with Microsporum canis, 6.25 µg/mL (≈ 14.4 µM); in the data set on Candida tropicalis, 12.5 µg/mL (≈ 28.8 µM); in the data set with Absidia ramosa, 50 µg/mL (≈ 115 µM). The MIC turned out to be 0.78 µg/mL (≈ 1.8 µM) in the data set with Epidermophyton floccosum; 0.78 µg/mL (≈ 1.8 µM) in the data set on Trichophyton verrucosum; 3.12 µg/mL (≈ 7.19 µM) with Microsporum gypseum; 1.56 µg/mL (≈ 3.59 µM) in the data set with Trichophyton rubrum; 6.25 µg/mL (≈ 14.4 µM) in the data set on Mucor mucedo minus. Also, in the data set on Aspergillus fumigatus, the “MIC values, Asp. fu.” value is listed as 3,12 μg/ml.

With `Clc1ccc(C(Cn2ccnc2)NCCCSc2c(Cl)cccc2Cl)c(Cl)c1` (centres unmarked) [compound 26], the “MIC values, Asp. fu.” value with Aspergillus fumigatus is 12,5 μg/ml.

Regarding `Clc1ccc(SCCCNC(Cn2ccnc2)c2ccc(Br)cc2)cc1` (centres unmarked) [compound 11], the “MIC values, Asp. fu.” value in the data set with Aspergillus fumigatus was 6,25 μg/ml.

On to `Clc1ccc(C(Cn2ccnc2)NCCCSc2ccc(Br)cc2)c(Cl)c1` (centres unmarked) [compound 24], for which the “MIC values, Asp. fu.” value in the data set with Aspergillus fumigatus is 0,39 μg/ml.

Take `Cc1ccc(SCCCNC(Cn2ccnc2)c2ccc(Cl)cc2Cl)cc1` (centres unmarked) [compound 17]: the “MIC values, Asp. fu.” value against Aspergillus fumigatus is 0,78 μg/ml.

For the molecule `Clc1ccc(SCCCNC(Cn2ccnc2)c2cccc3ccccc23)cc1` (centres unmarked) [compound 41], the “MIC values, Asp. fu.” value against Aspergillus fumigatus is on record as 3,12 μg/ml.

Turning to `Clc1ccc(C(Cn2ccnc2)NCCCSc2ccc3ccccc3c2)c(Cl)c1` (centres unmarked) [compound 27], the “MIC values, Asp. fu.” value with Aspergillus fumigatus is 0,78 μg/ml.

As for `COc1ccc(SCCNC(Cn2ccnc2)c2ccc(Cl)cc2Cl)cc1` (centres unmarked) [compound 5], the “MIC values, Asp. fu.” value against Aspergillus fumigatus is reported as 12,5 μg/ml.

`Clc1ccc(SCCCNC(Cn2ccnc2)c2cccs2)cc1` (centres unmarked) [compound 31]: the MIC in data set [1] worked out at 12.5 µg/mL (≈ 33.1 µM); with Mucor mucedo plus it was 12.5 µg/mL; in the data set with Candida albicans it was 12.5 µg/mL (≈ 33.1 µM); in the data set with Microsporum canis it was 25 µg/mL (≈ 66.1 µM); in the data set on Candida tropicalis, 25 µg/mL (≈ 66.1 µM); in the data set with Absidia ramosa, 2.5 µg/mL (≈ 6.61 µM). Moreover, the MIC was found to be 3.12 µg/mL (≈ 8.25 µM) in the data set with Epidermophyton floccosum; 3.12 µg/mL (≈ 8.25 µM) in the data set on Trichophyton verrucosum; 6.25 µg/mL (≈ 16.5 µM) in the data set on Microsporum gypseum; 3.12 µg/mL (≈ 8.25 µM) in the data set on Trichophyton rubrum; 12.5 µg/mL (≈ 33.1 µM) with Mucor mucedo minus. Also, in the data set with Aspergillus fumigatus, the “MIC values, Asp. fu.” value was 12,5 μg/ml.

Consider `Clc1ccc(C(Cn2ccnc2)NCCSc2ccc3ccccc3c2)c(Cl)c1` (centres unmarked) [compound 6], for which the MIC in the data set with Mucor mucedo minus is 12.5 µg/mL (≈ 28.3 µM).
